Data as given in US20030211152A1, “Controlled release formulation for treating COPD” (SmithKline Beecham Corporation, priority 1999, published 2003).
Read-outs that look alike come from different tables or passages of the source.

What was measured:
[1] = Side effects with increasing oral dose and blood levels; format: in vivo; conditions: as blood levels increase with increased levels of dosing
Source text: While to date no one has been able to identify a compound which is completely without unwanted CNS side effects at all possible dosage levels, at least one compound has been identified that meets the criteria described above, namely cis-4-cyano-4-[3-(cyclopentyloxy)-4-methoxyphenyl]cyclohexane-1-carboxylic acid. […] This is particularly true with COPD. […] The controlled release formulations of this invention allow for administering in a single dosage form several times the quantity that can otherwise be administered of a PDE4 inhibitor and achieve both initial therapeutically effective blood levels and maintain these blood level for an extended period of time. PDE4 inhibitors, particularly PDE4-specific inhibitors are useful in treating other diseases especially in the areas of inflammation, (e.g., asthma, chronic obstructive pulmonary disease, inflammatory bowel disease, rheumatoid arthritis), affects related to tumor necrosis factor and to cognition impairment (e.g., multi-infarct dementia, cognitive dysfunction, or stroke). This invention is useful in treating these diseases as well. These formulations and the method descibed herein can be used for prophylactic treatment as well. Additional other therapeutic or prophylactic agents can be combined with a PDE4 inhibitor in these formulations as well.

[2] = system: PDE 4; assay: IC50 ratio: competing with [3H]R-rolipram binding to high affinity form over inhibiting catalytic activity of low affinity form; format: biochemical; conditions: 1 nM [3H]R-rolipram binding; 1 uM [3H]-cAMP as substrate
Source text: This invention covers controlled release formulations which contain a PDE 4 inhibitor, particularly an inhibitor that is specific for PDE 4. A preferred group of inhibitors are those that have an IC50 ratio (high/low binding) of about 0.1 or greater as further described in co-pending U.S. application Ser. No. 08/456,274 and its published counter-part PCT application serial number published Jan. 5, 1995 as WO95/00139; this application is incorporated herein in full by reference as if fully set forth herein. A preferred standard for PDE 4-specific inhibitors which can be used in this invention is one where the compound has an IC50 ratio of about 0.1 or greater; said ratio being the ratio of the IC50 value for competing with the binding of 1 nM of [^3H]R-rolipram to a form of PDE 4 which binds rolipram with a high affinity over the IC50 value for inhibiting the PDE 4 catalytic activity of a form which binds rolipram with a low affinity using 1 uM[^3H]-cAMP as the substrate.

[3] = clinical studies / indications; cited from earlier work

Row | Structure (SMILES) | side effects [1] | therapeutic ratio (IC50 ratio high/low binding) [2] | side effects [3]
1 | COc1ccc([C@]2(C#N)CC[C@@H](C(=O)O)CC2)cc1OC1CCCC1 [cis-4-cyano-4-[3-(cyclopentyloxy)-4-methoxyphenyl]cyclohexane-1-carboxylic acid] | undesirable side effects such as those attributed to CNS activity begin to be manifested | greater than 0.1 | 
2 | CCCCn1c(=O)c2c(ncn2CC(C)=O)n(CCCC)c1=O [denbufylline] |  |  | pyrosis, nausea and emesis
3 | COc1ccc(C2CNC(=O)C2)cc1OC1CCCC1 (stereo not shown) [rolipram] |  |  | psychotropic activity and produces gastrointestinal effects, e.g., pyrosis, nausea and emesis
